The test concerns the target T1, TXK (Homo sapiens, UniProt P42681).
T1 construct: purchased Thermo Fisher Scientific (Life Technologies) SelectScreen
The test is described as follows: SelectScreen Z'LYTE. The test is classed as biochemical. A digest of the protocol: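 Percent values come from Thermo SelectScreen profiling of NU5455, combining activity and binding assays. CSF1R was run in Z'LYTE format at Km app ATP, and CAMK1 in Adapta format with ATP listed at 10.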

Each structure is given as a SMILES string.

T1 sequence (P42681 whole entry): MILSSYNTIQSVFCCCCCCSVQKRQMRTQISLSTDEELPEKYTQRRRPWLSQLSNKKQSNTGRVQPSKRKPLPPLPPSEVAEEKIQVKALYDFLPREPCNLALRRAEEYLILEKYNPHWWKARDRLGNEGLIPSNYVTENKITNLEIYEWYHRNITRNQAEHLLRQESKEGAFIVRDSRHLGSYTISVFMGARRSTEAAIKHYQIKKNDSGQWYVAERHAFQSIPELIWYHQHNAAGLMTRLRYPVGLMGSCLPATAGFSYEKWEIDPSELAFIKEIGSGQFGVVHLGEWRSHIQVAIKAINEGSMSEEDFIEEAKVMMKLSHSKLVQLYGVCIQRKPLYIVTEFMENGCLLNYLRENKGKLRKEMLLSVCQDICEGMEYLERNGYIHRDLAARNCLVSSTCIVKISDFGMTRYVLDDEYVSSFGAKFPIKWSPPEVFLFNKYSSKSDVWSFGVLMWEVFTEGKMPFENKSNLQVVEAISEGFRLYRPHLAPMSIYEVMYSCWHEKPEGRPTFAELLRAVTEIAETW

For the molecule `CN(C(=O)CN1CCOCC1)c1ccc2sc3c(-c4cccc5c(=O)cc(N6CC7CCC(C6)O7)oc45)cccc3c2c1` [NU5455], the inhibition (commonly the change of the read-out against control, counted positive when it falls) at 1 µM was -2.9%.

The values above are taken from PMC6934184, “Selective DNA-PKcs inhibition extends the therapeutic index of localized radiotherapy and chemotherapy” (The Journal of Clinical Investigation, 2019).
